“Also recorded” adds a separate entry of the source.
How the values were obtained:
[1] = Remote loading efficiency of small molecules into liposomes (PD-10 size exclusion, HPLC); format: physicochemical
Procedure: A solution of the small molecule (modified TLR agonist) was lyophilized in a vial equipped with a magnetic stir bar over night to form a fluffy white powder. This powder was added either formulation F1 or F2 to the wanted drug/lipid ratio. The resulting mixture was stirred at 55° C. or 41° C. for formulation F1 and F2 respectively for 3h, then allowed to cool to rt before the solutions were refrigerated and stored at 4° C.
Remote loading efficiency was determined at 1 h and 3 h by taking out 100 μL of the mixture and applying this and 900 μL buffer (25 mM HEPES, 10 vol % sucrose buffer, pH 7.4) to a PD-10 column size exclusion column. Following, 10×1 mL fractions were collected, and the small molecule compound concentrations in the loading mixture and in the liposome containing fractions were determined on analytical HPLC. Loading efficiency was calculated as percentage of molecules found in liposome containing fractions out of the applied amount. The general procedure for the small molecule remote loading is visualized in FIG. 3. The general concept of remote loading imidazoquinolines in liposomes that are dialyzed against HEPES is visualized in FIG. 4.

[2] = tested on: whole human blood; assay: IL-6 cytokine expression in stimulated whole human blood (ELISA); format: cell-based
Procedure: (§1) This example describes the general procedure used to assess the level of cytokine IL-6 and IL-12p40 expressions upon stimuli of whole human blood with small molecules or small molecules in liposomal formulations F1 and F2. 10 mM DMSO solutions of the small molecules were diluted in RPMI media (RPMI-1640, Sigma Aldrich) with 1% penicillin/streptomycin (p/s). […], of each dilution was transferred to Nunc™ 96-Well Polystyrene Conical Bottom MicroWell™ Plates in duplicates. Blood was drawn from two human donors, diluted in RPMI with 1% p/s and added to each well to reach final concentrations of 10 μM, 1 μM, and 0.1 μM of the small molecules. The plates were incubated at 37° C. in a cell incubator for 24h. The plates were then spun down in a plate centrifuge with 3200 revolutions per minute (rpm) for 10 min before 50 uL of the supernatant was transferred to new 96-well plates. The supernatant samples were subsequently stored at −80° C. until the day of cytokine measurements.
(§2) The level of cytokine expression was measured using either an IL-6 ELISA Kit (RnDSystems, cat #DY206) for IL-6, or an IL-12p40 ELISA Kit (RnDSystems, cat #DY1240) according to the manufacturer's protocols. This general procedure was used to generate the examples 24-33.

[3] = tested on: whole human blood; assay: IL-12p40 cytokine expression in stimulated whole human blood (ELISA); format: cell-based
Procedure: as §1, §2

[4] = Cryo-TEM of remote loaded liposomes (intraliposomal precipitation); format: physicochemical
Procedure: CryoTEM samples of 3 μL of liposome solution was placed on a lacy carbon 300 mesh copper TEM grid, blotted and plunge frozen in liquid ethane using a FEI Vitrobot Mark IV. Samples were imaged using a FEI Tecnai G2 20 TWIN transmission electron microscope operated at 200 keV in low dose mode with a FEI High-Sensitive (HS) 4 k×4 k Eagle camera.

[5] = free small molecule, 10, 1, 0.1 μM, 24 h, two donors

**Q.** Which results are given for CCOCc1nc2c(N)nc3ccccc3c2n1CCN [MK079-D, 1-(2-aminoethyl)-2-(ethoxymethyl)-1H-imidazo[4,5-c]quinolin-4-amine]?
**A.** Remote loading efficiency 1 h (%) ([1]; formulation F1, HEPES, drug/lipid ratio 0.06, 1 h): 87%; Remote loading efficiency 3 h (%) ([1]; formulation F1, HEPES, drug/lipid ratio 0.06, 3 h): 98%; Remote loading efficiency 1 h (%) ([1]; formulation F1, HEPES, drug/lipid ratio 0.10, 1 h): 93%; Remote loading efficiency 3 h (%) ([1]; formulation F1, HEPES, drug/lipid ratio 0.10, 3 h): 95%; Remote loading efficiency 1 h (%) ([1]; formulation F1, HEPES, drug/lipid ratio 0.25, 1 h): 90%; Remote loading efficiency 3 h (%) ([1]; formulation F1, HEPES, drug/lipid ratio 0.25, 3 h): 98%; Remote loading efficiency 1 h (%) ([1]; formulation F1, HEPES, drug/lipid ratio 0.50, 1 h): 77%; Remote loading efficiency 3 h (%) ([1]; formulation F1, HEPES, drug/lipid ratio 0.50, 3 h): 70%; Remote loading efficiency 1 h (%) ([1]; formulation F1, TAPS pH 8.5, drug/lipid ratio 0.06, 1 h): 80%; Remote loading efficiency 3 h (%) ([1]; formulation F1, TAPS pH 8.5, drug/lipid ratio 0.06, 3 h): 77%; Remote loading efficiency 1 h (%) ([1]; formulation F2, HEPES, drug/lipid ratio 0.06, 1 h): 81%; Remote loading efficiency 3 h (%) ([1]; formulation F2, HEPES, drug/lipid ratio 0.06, 3 h): 81%; Remote loading efficiency 1 h (%) ([1]; formulation F2, HEPES, drug/lipid ratio 0.10, 1 h): 82%; Remote loading efficiency 3 h (%) ([1]; formulation F2, HEPES, drug/lipid ratio 0.10, 3 h): 88%; Remote loading efficiency 1 h (%) ([1]; formulation F2, HEPES, drug/lipid ratio 0.25, 1 h): 90%; Remote loading efficiency 3 h (%) ([1]; formulation F2, HEPES, drug/lipid ratio 0.25, 3 h): 94%; Remote loading efficiency 1 h (%) ([1]; formulation F2, HEPES, drug/lipid ratio 0.50, 1 h): 73%; Remote loading efficiency 3 h (%) ([1]; formulation F2, HEPES, drug/lipid ratio 0.50, 3 h): 57%; Remote loading efficiency 1 h (%) ([1]; formulation F2, TAPS pH 8.5, drug/lipid ratio 0.06, 1 h): 80%; Remote loading efficiency 3 h (%) ([1]; formulation F2, TAPS pH 8.5, drug/lipid ratio 0.06, 3 h): 70%; Expression of IL-6 upon stimulation of whole human blood [2, 5]: expression of IL-6 at 10 μM in both donors; Expression of IL-6 upon stimulation of whole human blood ([2]; remote loaded in formulation F1, HEPES, drug/lipid ratio 0.06): an expression of IL-6 at 10 μM; Expression of IL-6 upon stimulation of whole human blood ([2]; remote loaded in formulation F1, TAPS, drug/lipid ratio 0.06): no expression of IL-6 at 10 μM; Expression of IL-6 upon stimulation of whole human blood ([2]; remote loaded in formulation F2, HEPES, drug/lipid ratio 0.06): able to induce expression of IL-6; Expression of IL-6 upon stimulation of whole human blood ([2]; remote loaded in formulation F2, TAPS, drug/lipid ratio 0.06): resulted in an expression of IL-6; Expression of IL-12p40 upon stimulation of whole human blood [3, 5]: expression of IL-12p40 at 10 μM in both donors; Expression of IL-12p40 upon stimulation of whole human blood ([3]; remote loaded in formulation F1, HEPES or TAPS, drug/lipid ratio 0.06): did not lead to any expression of IL-12p40; Expression of IL-12p40 upon stimulation of whole human blood ([3]; remote loaded in formulation F2, HEPES or TAPS, drug/lipid ratio 0.06): Induction of IL-12p40 expression was observed; also recorded: larger expression of IL-12p40 when dialyzed against HEPES compared to TAPS; Precipitation in liposomes (Cryo-TEM) ([4]; formulation F1, HEPES, drug/lipid ratio 0.25): precipitation of the small molecule inside the aqueous core of the liposomes; Precipitation in liposomes (Cryo-TEM) ([4]; formulation F1, HEPES, drug/lipid ratio 0.50): precipitation of the small molecule in the aqueous core of the liposomes; Precipitation in liposomes (Cryo-TEM) ([4]; formulation F2, drug/lipid ratio 0.25): precipitation of the small molecule in the aqueous core of the liposomes; Precipitation in liposomes (Cryo-TEM) ([4]; formulation F2, drug/lipid ratio 0.50): precipitation of the small molecule in the aqueous core of the liposomes
